Assay results from patent US20220340547A1, “INDOLE DERIVATIVE-CONTAINING INHIBITOR, PREPARATION METHOD THEREFOR AND APPLICATION THEREOF” (Shanghi Hansoh Biosoh Biomedical Co., Ltd., priority 2019, published 2022).

How the values were obtained:
EGFR D770_N771insNPG = EGFR D770_N771insNPG (Homo sapiens, UniProt P00533, INS770NPG); test: TR-FRET inhibition of kinase activity of EGFR exon 20 insertion mutation; assay type: biochemical
[1] = target: Ba/F3 EGFR-D770-N771ins_SVD (Homo sapiens, UniProt P00533, DUP768-770, cells depend on it); test: Proliferation of Ba/F3 EGFR mutant cell line (CellTiter-Glo); assay type: cell-based, mouse; settings: 72 h to 144 h, read-out: Ba/F3 EGFR-D770-N771ins_SVD IC50
Ba/F3 EGFR-D770-N771ins_SVD, sequence (P00533 with tags, fused parts or gaps DUP768-770): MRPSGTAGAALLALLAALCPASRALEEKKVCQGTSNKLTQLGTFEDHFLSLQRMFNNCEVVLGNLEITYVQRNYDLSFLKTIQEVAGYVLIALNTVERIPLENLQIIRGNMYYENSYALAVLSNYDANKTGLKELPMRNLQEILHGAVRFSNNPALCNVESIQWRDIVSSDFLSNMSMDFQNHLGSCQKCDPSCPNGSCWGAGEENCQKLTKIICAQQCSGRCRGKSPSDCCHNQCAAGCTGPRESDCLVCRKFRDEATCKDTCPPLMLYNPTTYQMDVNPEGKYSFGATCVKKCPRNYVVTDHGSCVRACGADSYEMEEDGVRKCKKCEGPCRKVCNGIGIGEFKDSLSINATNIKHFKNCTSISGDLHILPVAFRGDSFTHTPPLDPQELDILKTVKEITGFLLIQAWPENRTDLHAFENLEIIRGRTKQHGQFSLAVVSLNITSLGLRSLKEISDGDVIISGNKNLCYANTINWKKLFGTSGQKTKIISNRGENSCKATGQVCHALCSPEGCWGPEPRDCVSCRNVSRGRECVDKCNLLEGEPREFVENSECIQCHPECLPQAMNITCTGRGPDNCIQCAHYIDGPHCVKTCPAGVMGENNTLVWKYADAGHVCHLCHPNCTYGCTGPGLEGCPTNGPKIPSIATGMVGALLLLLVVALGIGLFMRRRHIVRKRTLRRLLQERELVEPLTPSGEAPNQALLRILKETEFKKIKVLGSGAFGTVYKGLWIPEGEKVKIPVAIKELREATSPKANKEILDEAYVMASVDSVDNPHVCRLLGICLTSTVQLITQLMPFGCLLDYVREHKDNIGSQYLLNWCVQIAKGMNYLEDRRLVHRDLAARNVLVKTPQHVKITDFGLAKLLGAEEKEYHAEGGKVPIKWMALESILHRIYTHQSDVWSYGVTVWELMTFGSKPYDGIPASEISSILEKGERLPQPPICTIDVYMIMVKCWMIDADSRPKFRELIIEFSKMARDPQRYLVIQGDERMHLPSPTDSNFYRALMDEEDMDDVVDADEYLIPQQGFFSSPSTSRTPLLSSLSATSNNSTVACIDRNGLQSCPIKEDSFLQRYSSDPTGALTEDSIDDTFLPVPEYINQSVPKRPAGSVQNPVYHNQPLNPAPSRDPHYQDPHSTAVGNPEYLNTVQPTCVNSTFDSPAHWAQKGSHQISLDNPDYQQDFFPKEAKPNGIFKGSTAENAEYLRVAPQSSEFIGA

A431 cell line = test: Proliferation of A431 cell line (CellTiter-Glo); assay type: cell-based; settings: Homo sapiens, A-431, 72 h
[2] = test system: Ba/F3 EGFR-D770-N771ins_SVD xenograft; test: In vivo pharmacodynamic study in mouse pro-B cell Ba/F3 EGFR-D770-N771ins_SVD xenograft model; settings: 40 mg/kg, oral, 1 time/day, 14 days; for Tumor volume (mm3, Mean ± SD) Day 14: BALB/cA nude mice
Protocol: In Vivo Pharmacodynamic Study of the Compound of the Present Invention in the Mouse Pro-B Cell Ba/F3 EGFR-D770-N771ins_SVD Xenograft Model
The in vivo efficacy of the compound in the mouse pro-B cell Ba/F3 EGFR-D770-N771ins_SVD xenograft model was evaluated.
BALB/cA nude mice (6-8 weeks old, female) were purchased from Shanghai Sino-British SIPPR/BK Lab Animal Co., Ltd.
a. […] The resuscitated cells were placed in the cell culture flasks (cell type, date, the name of the culturing person and the like were marked on the flask wall), and incubated in a CO2 incubator (the incubator temperature was 37° C., and the CO2 concentration was 5%).
b. The cells were passaged every three days. After passage, the cells were further incubated in the CO2 incubator. The process was repeated until the number of cells met the requirements of the in vivo pharmacodynamic study.
c. The cultured cells were collected and counted by the automatic cell counter. According to the counting results, the cells were resuspended in PBS to prepare a cell suspension (density: 2×10^7 cells/mL), which was placed in an ice box for later use.
d. The test nude mice were inoculated in turn (0.1 mL of cell suspension per mouse).
a. Tumor was measured on Day 8 to Day 14 after inoculation depending on the tumor growth, and tumor size was calculated.
Tumor volume calculation: tumor volume (mm^3)=length (mm)×width (mm)×width (mm)/2
b. According to the body weight and tumor size of the tumor-bearing mouse, the mice were randomly grouped (5 mice per group).
d. The tumor was measured and the mouse was weighed twice a week after the test drug was administrated.
Calculation of the Tumor Growth Inhibition Rate TGI (%) of the Compound: […]

[3] = Plasma stability test, human plasma; assay type: in vitro ADME; settings: 37° C.
Protocol: (§1) Test Example 5. Plasma Stability Test
(§2) The objective of this experiment is to determine the stability of the compounds of the examples in the plasma of mouse, rat and human.
(§3) 1. Plasma preparation: Animal or human whole blood was collected, placed into a test tube containing anticoagulant, and centrifuged at 3500 rpm for 10 min. The light yellow plasma in the upper layer was collected.
(§4) 2. 1 mM test compound (m/M/V=C), the compound was weighed and formulated into stock solution with DMSO.
(§5) 1. 398 μL of plasma and 2 μL of 1 mM compound (test compound) were added successively to a 96-well plate, and incubated at 37° C.
(§6) 2. 50 μL of solution was taken out at 0, 15, 30, 60, 120 min, to which 400 μL of methanol stop solution containing internal standard was added.
(§7) 3. The solution was centrifuged (3220 g, 30 min). 50 μL of supernatant was taken out, to which 50 μL of DDH2O was added to dilute. The resulting solution was injected into a LC-MS/MS.

[4] = Plasma stability test, rat plasma; assay type: in vitro ADME; settings: 37° C.
Protocol: as §1, §2, §3, §4, §5, §6, §7

[5] = Plasma stability test, mouse plasma; assay type: in vitro ADME; settings: 37° C.
Protocol: as §1, §2, §3, §4, §5, §6, §7

EGFR D770_N771insNPG, sequence (P00533 with tags, fused parts or gaps INS770NPG limits assumed): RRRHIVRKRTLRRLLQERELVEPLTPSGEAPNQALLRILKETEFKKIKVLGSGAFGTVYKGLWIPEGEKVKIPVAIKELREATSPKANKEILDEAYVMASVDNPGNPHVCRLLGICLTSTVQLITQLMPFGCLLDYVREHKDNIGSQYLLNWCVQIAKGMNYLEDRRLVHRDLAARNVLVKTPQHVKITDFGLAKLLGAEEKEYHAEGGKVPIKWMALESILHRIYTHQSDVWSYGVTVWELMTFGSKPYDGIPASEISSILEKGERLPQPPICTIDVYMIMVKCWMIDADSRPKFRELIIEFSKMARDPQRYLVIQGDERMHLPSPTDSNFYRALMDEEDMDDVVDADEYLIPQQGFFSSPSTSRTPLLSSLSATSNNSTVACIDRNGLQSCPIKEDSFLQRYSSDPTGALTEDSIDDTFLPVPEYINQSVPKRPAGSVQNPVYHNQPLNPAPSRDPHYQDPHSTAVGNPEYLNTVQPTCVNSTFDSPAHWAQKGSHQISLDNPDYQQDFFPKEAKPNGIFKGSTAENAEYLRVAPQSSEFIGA

Row | IC50 (EGFR D770_N771insNPG) [nM] | GI50 [1] [nM] | IC50 (A431 cell line) [nM] | SMILES | T/C (%) Day 14 [2] [%] | TGI (%) Day 14 [2] [%] | Tumor volume (mm3, Mean ± SD) Day 14 [2] [mm3] | also measured
1 | 0.14 | 10.4 | 94.5 | C=CC(=O)Nc1cc(Nc2ncc(C#N)c(-c3cn(C4CC4)c4ccccc34)n2)c(OC)cc1N(C)CCN(C)C [Example 67, N-(5-((5-Cyano-4-(1-cyclopropyl-1H-indol-3-yl)pyrimidin-2-yl)amino)-2-((2-(dimethylamino)ethyl)(methyl)amino)-4-methoxyphenyl)acrylamide] | 10.94 | 89.06 | 212 ± 44 | half-life at 5 µM [3]: 1.38 h; Residual rate (%) 0 min ([3]; 0 min): 100.00%; Residual rate (%) 15 min ([3]; 15 min): 93.86%; Residual rate (%) 30 min ([3]; 30 min): 85.71%; Residual rate (%) 60 min ([3]; 60 min): 67.74%; Residual rate (%) 120 min ([3]; 120 min): 37.38%; half-life at 5 µM [4]: 1.23 h; Residual rate (%) 0 min ([4]; 0 min): 100.00%; Residual rate (%) 15 min ([4]; 15 min): 90.61%; Residual rate (%) 30 min ([4]; 30 min): 81.14%; Residual rate (%) 60 min ([4]; 60 min): 59.66%; Residual rate (%) 120 min ([4]; 120 min): 33.25%; half-life at 5 µM [5]: 0.665 h; Residual rate (%) 0 min ([5]; 0 min): 100.00%; Residual rate (%) 15 min ([5]; 15 min): 88.69%; Residual rate (%) 30 min ([5]; 30 min): 69.92%; Residual rate (%) 60 min ([5]; 60 min): 36.29%; Residual rate (%) 120 min ([5]; 120 min): 9.06%
2 | – | – | – | C=CC(=O)Nc1cc(Nc2nccc(-c3cn(C)c4ccccc34)n2)c(OC)cc1N(C)CCN(C)C [ADZ9291] | 48.40 | 51.60 | 935 ± 176 | –
3 | 0.47 | 22.9 | 66.8 | C=CC(=O)Nc1cc(Nc2ncc(-c3ncco3)c(-c3cn(C)c4ccccc34)n2)c(OC)cc1N(C)CCN(C)C [Example 81, N-(2-((2-(Dimethylamino)ethyl)(methyl)amino)-4-methoxy-5-((4-(1-methyl-1H-indol-3-yl)-5-(oxazol-2-yl)pyrimidin-2-yl)amino)phenyl)acrylamide] | 17.23 | 82.77 | 334 ± 121 | –
4 | 0.56 | 16.6 | 66 | C=CC(=O)Nc1cc(Nc2ncc(-c3ncco3)c(-c3cn(C4CC4)c4ccccc34)n2)c(OC)cc1N(C)CCN(C)C [Example 37, N-(5-((4-(1-Cyclopropyl-1H-indol-3-yl)-5-(oxazol-2-yl)pyrimidin-2-yl)amino)-2-((2-(dimethylamino)ethyl)(methyl)amino)-4-methoxyphenyl)acrylamide] | 25.75 | 74.25 | 499 ± 151 | –
